Assay results reported in ChEMBL document CHEMBL4507279, “Data for DCP probe BI-9627” (2021).

Columns and labels:
[1] = target: Mitogen-activated protein kinase kinase kinase kinase 2 (Homo sapiens) (UniProt Q12851); conditions: Compound concentration 1000.0 nM
[2] = target: Serine/threonine-protein kinase OSR1 (Homo sapiens) (UniProt O95747); conditions: Compound concentration 1000.0 nM
[3] = target: Serine/threonine-protein kinase 33 (Homo sapiens) (UniProt Q9BYT3); conditions: Compound concentration 1000.0 nM
[4] = target: Serine/threonine-protein kinase MRCK alpha (Homo sapiens) (UniProt Q5VT25); conditions: Compound concentration 1000.0 nM
[5] = tested on: Epidermal growth factor receptor (Homo sapiens), P00533 [G719S]; conditions: Compound concentration 1000.0 nM
[6] = target: Tyrosine-protein kinase Tec (Homo sapiens) (UniProt P42680); conditions: Compound concentration 1000.0 nM
[7] = target: Serine/threonine-protein kinase ULK1 (Homo sapiens) (UniProt O75385); conditions: Compound concentration 1000.0 nM
[8] = target: Serine/threonine-protein kinase DCLK2 (Homo sapiens) (UniProt Q8N568); conditions: Compound concentration 1000.0 nM
[9] = target: Serine/threonine-protein kinase N1 (Homo sapiens) (UniProt Q16512); conditions: Compound concentration 1000.0 nM
[10] = target: Serine/threonine-protein kinase 3 (Homo sapiens) (UniProt Q13188); conditions: Compound concentration 1000.0 nM
[11] = target: Myosin-IIIa (Homo sapiens) (UniProt Q8NEV4); conditions: Compound concentration 1000.0 nM
[12] = target: Interleukin-1 receptor-associated kinase 3 (Homo sapiens) (UniProt Q9Y616); conditions: Compound concentration 1000.0 nM
[13] = target: Mitogen-activated protein kinase kinase kinase 10 (Homo sapiens) (UniProt Q02779); conditions: Compound concentration 1000.0 nM
[14] = target: Tyrosine-protein kinase ZAP-70 (Homo sapiens) (UniProt P43403); conditions: Compound concentration 1000.0 nM
[15] = target: Dual specificity mitogen-activated protein kinase kinase 3 (Homo sapiens) (UniProt P46734); conditions: Compound concentration 1000.0 nM
[16] = target: Serine/threonine-protein kinase ULK2 (Homo sapiens) (UniProt Q8IYT8); conditions: Compound concentration 1000.0 nM
[17] = target: Dual specificity protein kinase CLK3 (Homo sapiens) (UniProt P49761); conditions: Compound concentration 1000.0 nM
[18] = target: Alpha-2C adrenergic receptor (Homo sapiens) (UniProt P18825); conditions: Compound concentration 10.0 uM
[19] = target: Sodium-dependent dopamine transporter (Homo sapiens, UniProt Q01959); test: GPCRScan assay: inhibition of DAT; parameters: radioligand conc. used [nm] 3.6 – 16.0, parental cells stable HEK
[20] = target: Serine/threonine-protein kinase 26 (Homo sapiens) (UniProt Q9P289); conditions: Compound concentration 1000.0 nM
[21] = target: Ephrin type-B receptor 4 (Homo sapiens) (UniProt P54760); conditions: Compound concentration 1000.0 nM
[22] = target: Microtubule-associated serine/threonine-protein kinase 1 (Homo sapiens) (UniProt Q9Y2H9); conditions: Compound concentration 1000.0 nM
[23] = tested on: Epidermal growth factor receptor (Homo sapiens), P00533 [UNDEFINED MUTATION]; conditions: Compound concentration 1000.0 nM
[24] = target: 5-hydroxytryptamine receptor 1B (Homo sapiens) (UniProt P28222); conditions: Compound concentration 10.0 uM
[25] = target: Epidermal growth factor receptor (Homo sapiens) (UniProt P00533); conditions: Compound concentration 1000.0 nM
[26] = target: Serine/threonine-protein kinase Nek9 (Homo sapiens) (UniProt Q8TD19); conditions: Compound concentration 1000.0 nM
[27] = tested on: Fibroblast growth factor receptor 3 (Homo sapiens), P22607 [G697C]; conditions: Compound concentration 1000.0 nM
[28] = target: Mitogen-activated protein kinase 8 (Homo sapiens) (UniProt P45983); conditions: Compound concentration 1000.0 nM
[29] = target: 5-hydroxytryptamine receptor 2C (Homo sapiens) (UniProt P28335); conditions: Compound concentration 10.0 uM
[30] = target: Cyclin-dependent kinase-like 5 (Homo sapiens) (UniProt O76039); conditions: Compound concentration 1000.0 nM
Rattus norvegicus = species: Rattus norvegicus; conditions: Compound concentration 10.0 uM
[31] = target: Ephrin type-A receptor 6 (Homo sapiens) (UniProt Q9UF33); conditions: Compound concentration 1000.0 nM
[32] = target: Cyclin-dependent kinase 11B (Homo sapiens) (UniProt P21127); conditions: Compound concentration 1000.0 nM
[33] = target: Serine/threonine-protein kinase 32A (Homo sapiens) (UniProt Q8WU08); conditions: Compound concentration 1000.0 nM
[34] = target: MAP/microtubule affinity-regulating kinase 4 (Homo sapiens) (UniProt Q96L34); conditions: Compound concentration 1000.0 nM
[35] = tested on: Tyrosine-protein kinase ABL1 (Homo sapiens), P00519 [T315I]; conditions: Compound concentration 1000.0 nM
[36] = target: Ribosomal protein S6 kinase alpha-4 (Homo sapiens) (UniProt O75676); conditions: Compound concentration 1000.0 nM
[37] = target: Serine/threonine-protein kinase MAK (Homo sapiens) (UniProt P20794); conditions: Compound concentration 1000.0 nM
[38] = target: Non-receptor tyrosine-protein kinase TNK1 (Homo sapiens) (UniProt Q13470); conditions: Compound concentration 1000.0 nM
[39] = target: Serine/threonine-protein kinase tousled-like 1 (Homo sapiens) (UniProt Q9UKI8); conditions: Compound concentration 1000.0 nM
[40] = target: Tyrosine-protein kinase Blk (Homo sapiens) (UniProt P51451); conditions: Compound concentration 1000.0 nM
[41] = target: Calcium/calmodulin-dependent protein kinase type 1 (Homo sapiens) (UniProt Q14012); conditions: Compound concentration 1000.0 nM
[42] = target: Histamine H1 receptor (Homo sapiens) (UniProt P35367); conditions: Compound concentration 10.0 uM
[43] = target: Serine/threonine-protein kinase BRSK1 (Homo sapiens) (UniProt Q8TDC3); conditions: Compound concentration 1000.0 nM
[44] = target: Mitogen-activated protein kinase kinase kinase kinase 3 (Homo sapiens) (UniProt Q8IVH8); conditions: Compound concentration 1000.0 nM

Sodium-dependent dopamine transporter, sequence (Q01959 whole entry): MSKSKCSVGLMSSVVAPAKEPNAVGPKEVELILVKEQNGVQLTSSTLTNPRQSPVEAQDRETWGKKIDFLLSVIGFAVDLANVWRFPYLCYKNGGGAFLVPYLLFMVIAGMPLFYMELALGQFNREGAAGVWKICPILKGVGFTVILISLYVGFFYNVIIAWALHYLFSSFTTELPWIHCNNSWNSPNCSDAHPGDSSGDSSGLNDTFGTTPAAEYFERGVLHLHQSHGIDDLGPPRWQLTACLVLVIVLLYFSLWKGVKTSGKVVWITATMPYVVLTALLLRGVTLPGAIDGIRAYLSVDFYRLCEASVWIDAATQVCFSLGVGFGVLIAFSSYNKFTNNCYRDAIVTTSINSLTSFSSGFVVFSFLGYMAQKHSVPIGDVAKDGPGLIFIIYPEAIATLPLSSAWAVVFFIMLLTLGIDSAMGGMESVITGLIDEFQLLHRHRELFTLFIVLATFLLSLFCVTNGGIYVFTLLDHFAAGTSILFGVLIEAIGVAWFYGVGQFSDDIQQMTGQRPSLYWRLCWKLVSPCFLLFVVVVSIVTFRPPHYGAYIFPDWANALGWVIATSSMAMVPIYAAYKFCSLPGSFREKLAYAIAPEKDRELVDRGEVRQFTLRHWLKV
MAP/microtubule affinity-regulating kinase 4 (Homo sapiens), sequence (Q96L34 whole entry): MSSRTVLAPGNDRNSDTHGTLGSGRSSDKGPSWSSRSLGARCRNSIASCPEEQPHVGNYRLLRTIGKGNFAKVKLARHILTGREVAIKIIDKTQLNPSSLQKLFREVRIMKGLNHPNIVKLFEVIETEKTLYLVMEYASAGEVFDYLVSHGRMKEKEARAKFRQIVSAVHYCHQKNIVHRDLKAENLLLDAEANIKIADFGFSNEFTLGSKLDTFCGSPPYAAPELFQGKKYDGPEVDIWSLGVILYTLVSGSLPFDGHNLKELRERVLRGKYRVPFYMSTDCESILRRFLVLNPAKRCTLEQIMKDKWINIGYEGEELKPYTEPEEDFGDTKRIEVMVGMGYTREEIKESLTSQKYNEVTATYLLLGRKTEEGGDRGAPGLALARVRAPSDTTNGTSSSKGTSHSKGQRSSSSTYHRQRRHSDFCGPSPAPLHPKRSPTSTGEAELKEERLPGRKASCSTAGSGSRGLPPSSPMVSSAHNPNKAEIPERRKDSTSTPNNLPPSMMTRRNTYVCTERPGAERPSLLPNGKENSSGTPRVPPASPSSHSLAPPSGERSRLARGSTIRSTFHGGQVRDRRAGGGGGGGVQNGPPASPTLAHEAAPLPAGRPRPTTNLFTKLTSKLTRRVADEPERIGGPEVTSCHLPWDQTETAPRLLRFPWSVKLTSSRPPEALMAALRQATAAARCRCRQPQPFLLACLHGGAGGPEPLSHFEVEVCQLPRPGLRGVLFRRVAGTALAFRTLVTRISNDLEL
Serine/threonine-protein kinase 26 (Homo sapiens), sequence (Q9P289 2-416 limits assumed): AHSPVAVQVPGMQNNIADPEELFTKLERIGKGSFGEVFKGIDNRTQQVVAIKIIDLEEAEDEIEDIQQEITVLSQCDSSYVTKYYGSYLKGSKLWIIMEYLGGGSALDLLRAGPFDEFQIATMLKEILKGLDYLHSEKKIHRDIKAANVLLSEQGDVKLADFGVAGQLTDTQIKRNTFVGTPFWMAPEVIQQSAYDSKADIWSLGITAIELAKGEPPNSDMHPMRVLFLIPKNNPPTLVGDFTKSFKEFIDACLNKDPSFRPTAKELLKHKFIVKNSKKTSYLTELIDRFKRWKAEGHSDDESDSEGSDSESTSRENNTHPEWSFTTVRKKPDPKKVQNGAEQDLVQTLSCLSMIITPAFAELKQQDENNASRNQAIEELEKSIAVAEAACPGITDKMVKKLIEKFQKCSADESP
Serine/threonine-protein kinase OSR1 (Homo sapiens), sequence (O95747 2-527 limits assumed): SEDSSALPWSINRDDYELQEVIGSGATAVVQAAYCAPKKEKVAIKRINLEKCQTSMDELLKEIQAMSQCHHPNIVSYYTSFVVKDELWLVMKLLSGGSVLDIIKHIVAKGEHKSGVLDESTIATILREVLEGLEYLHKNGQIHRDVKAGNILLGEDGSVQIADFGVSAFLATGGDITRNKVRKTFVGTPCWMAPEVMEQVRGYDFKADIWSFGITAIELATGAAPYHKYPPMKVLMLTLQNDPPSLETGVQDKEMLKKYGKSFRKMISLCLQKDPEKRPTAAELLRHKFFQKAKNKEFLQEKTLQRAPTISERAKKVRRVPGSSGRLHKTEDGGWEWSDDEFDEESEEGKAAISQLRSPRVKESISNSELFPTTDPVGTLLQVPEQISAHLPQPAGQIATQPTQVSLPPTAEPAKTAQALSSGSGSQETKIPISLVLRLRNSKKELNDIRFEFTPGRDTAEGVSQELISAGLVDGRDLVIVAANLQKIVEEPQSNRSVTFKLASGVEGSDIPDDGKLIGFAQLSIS
Non-receptor tyrosine-protein kinase TNK1 (Homo sapiens), sequence (Q13470 whole entry): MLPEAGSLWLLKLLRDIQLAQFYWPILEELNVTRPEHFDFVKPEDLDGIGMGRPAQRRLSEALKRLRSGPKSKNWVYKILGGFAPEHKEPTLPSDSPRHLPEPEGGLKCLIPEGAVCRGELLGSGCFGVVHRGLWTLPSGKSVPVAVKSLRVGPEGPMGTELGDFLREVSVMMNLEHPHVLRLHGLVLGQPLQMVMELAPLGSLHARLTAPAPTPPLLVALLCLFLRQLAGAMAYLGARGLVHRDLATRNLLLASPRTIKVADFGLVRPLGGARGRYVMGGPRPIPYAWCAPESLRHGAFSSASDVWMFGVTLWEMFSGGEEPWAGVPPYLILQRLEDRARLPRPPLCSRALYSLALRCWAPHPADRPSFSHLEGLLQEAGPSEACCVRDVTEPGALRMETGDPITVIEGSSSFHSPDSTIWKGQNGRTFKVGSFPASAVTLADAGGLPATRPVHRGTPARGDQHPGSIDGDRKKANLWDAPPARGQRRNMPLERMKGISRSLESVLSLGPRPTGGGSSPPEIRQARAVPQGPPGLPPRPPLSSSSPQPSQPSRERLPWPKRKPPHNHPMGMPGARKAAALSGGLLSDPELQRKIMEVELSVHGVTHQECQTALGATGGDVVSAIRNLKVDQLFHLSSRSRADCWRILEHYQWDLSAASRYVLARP
Serine/threonine-protein kinase BRSK1 (Homo sapiens), sequence (Q8TDC3 whole entry): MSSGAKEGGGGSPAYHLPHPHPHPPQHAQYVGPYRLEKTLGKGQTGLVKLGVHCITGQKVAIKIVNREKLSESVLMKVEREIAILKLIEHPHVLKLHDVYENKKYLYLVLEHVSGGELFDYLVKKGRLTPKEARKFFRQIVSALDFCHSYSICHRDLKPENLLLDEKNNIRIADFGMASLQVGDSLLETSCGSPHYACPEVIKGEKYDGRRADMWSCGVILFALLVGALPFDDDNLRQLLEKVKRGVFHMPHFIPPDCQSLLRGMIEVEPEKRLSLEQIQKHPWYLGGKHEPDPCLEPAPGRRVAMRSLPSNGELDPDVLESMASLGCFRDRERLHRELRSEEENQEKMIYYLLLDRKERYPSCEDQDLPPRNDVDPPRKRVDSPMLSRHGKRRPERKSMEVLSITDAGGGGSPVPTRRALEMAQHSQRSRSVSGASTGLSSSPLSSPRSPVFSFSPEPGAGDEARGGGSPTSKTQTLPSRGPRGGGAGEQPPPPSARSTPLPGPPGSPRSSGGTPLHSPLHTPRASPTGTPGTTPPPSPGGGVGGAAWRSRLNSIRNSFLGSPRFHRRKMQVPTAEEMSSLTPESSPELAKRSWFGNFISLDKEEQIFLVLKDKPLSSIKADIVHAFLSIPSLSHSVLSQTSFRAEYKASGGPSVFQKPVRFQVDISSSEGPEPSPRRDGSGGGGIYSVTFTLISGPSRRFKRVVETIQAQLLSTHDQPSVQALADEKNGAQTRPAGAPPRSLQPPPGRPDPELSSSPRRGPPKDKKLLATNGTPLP
Fibroblast growth factor receptor 3 (Homo sapiens), P22607 [G697C], sequence (P22607 whole entry G697C): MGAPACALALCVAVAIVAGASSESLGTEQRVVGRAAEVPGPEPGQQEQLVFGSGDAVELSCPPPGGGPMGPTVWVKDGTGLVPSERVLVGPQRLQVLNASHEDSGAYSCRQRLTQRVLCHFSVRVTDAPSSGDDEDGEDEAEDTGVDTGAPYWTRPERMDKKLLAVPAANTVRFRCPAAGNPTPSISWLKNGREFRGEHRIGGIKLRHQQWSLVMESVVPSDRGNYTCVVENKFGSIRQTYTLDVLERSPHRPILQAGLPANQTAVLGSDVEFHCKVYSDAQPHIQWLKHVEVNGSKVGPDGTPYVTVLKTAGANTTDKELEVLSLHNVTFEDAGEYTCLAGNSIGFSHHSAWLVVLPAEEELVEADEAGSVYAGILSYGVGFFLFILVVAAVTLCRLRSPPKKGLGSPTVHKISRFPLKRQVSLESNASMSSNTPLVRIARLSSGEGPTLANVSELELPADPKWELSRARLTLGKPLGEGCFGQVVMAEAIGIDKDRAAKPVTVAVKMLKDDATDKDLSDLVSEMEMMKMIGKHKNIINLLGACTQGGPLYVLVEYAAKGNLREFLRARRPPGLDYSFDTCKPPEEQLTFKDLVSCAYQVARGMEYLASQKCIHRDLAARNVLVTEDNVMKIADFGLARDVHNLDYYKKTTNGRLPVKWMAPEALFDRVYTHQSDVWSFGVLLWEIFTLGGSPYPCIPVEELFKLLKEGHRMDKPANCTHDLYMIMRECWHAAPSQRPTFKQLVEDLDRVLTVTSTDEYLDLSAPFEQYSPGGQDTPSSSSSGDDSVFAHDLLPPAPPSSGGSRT
Serine/threonine-protein kinase 32A (Homo sapiens), sequence (Q8WU08 whole entry): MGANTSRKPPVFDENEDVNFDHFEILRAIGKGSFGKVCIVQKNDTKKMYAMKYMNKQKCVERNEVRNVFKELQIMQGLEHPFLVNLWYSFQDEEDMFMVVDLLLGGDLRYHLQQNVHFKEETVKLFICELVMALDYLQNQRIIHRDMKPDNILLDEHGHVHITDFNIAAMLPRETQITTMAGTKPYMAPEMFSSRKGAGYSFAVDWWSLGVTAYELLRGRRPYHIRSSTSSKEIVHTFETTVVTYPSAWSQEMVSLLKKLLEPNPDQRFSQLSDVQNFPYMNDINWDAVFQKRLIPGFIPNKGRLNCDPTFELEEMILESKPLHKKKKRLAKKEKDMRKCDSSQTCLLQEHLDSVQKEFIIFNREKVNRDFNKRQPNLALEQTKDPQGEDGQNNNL

CC(=O)N1CCC(c2ccc(C(=O)NC3=NCCN3)cc2C(F)(F)F)CC1 [BI 0054]
residual activity [1]: 100%
residual activity [2]: 100%
residual activity [3]: 100%
residual activity [4]: 100%
residual activity [5]: 100%
residual activity [6]: 100%
residual activity [7]: 85%
residual activity [8]: 88%
residual activity [9]: 100%
residual activity [10]: 100%
residual activity [11]: 100%
residual activity [12]: 100%
residual activity [13]: 100%
residual activity [14]: 97%
residual activity [15]: 87%
residual activity [16]: 82%
residual activity [17]: 100%
inhibition [18]: 16.3%
Ki ([19]; read-out: Ki): 0.825 µM
Ki ([19]; read-out: pKi (converted)): 0.794 µM
residual activity [20]: 89%
residual activity [21]: 100%
residual activity [22]: 87%
residual activity [23]: 100%
inhibition [24]: 37.8%
residual activity [25]: 100%
residual activity [26]: 100%
residual activity [27]: 87%
residual activity [28]: 84%
inhibition [29]: -2.86%
residual activity [30]: 79%
inhibition (Rattus norvegicus): -2.17%
residual activity [31]: 98%
residual activity [32]: 92%
residual activity [33]: 100%
residual activity [34]: 100%
residual activity [35]: 87%
residual activity [36]: 100%
residual activity [37]: 61%
residual activity [38]: 84%
residual activity [39]: 100%
residual activity [40]: 94%
residual activity [41]: 100%
inhibition [42]: -0.162%
residual activity [43]: 100%
residual activity [44]: 95%

CC(=O)N1CCC(c2ccc(C(=O)NC(=N)N)cc2C(F)(F)F)CC1 [BI 9627]
residual activity [1]: 100%
residual activity [2]: 100%
residual activity [3]: 100%
residual activity [4]: 100%
residual activity [5]: 96%
residual activity [6]: 100%
residual activity [7]: 100%
residual activity [8]: 93%
residual activity [9]: 87%
residual activity [10]: 100%
residual activity [11]: 100%
residual activity [12]: 99%
residual activity [13]: 95%
residual activity [14]: 100%
residual activity [15]: 100%
residual activity [16]: 100%
residual activity [17]: 100%
inhibition [18]: 9.12%
Ki ([19]; read-out: Ki): 1.52 µM
Ki ([19]; read-out: pKi (converted)): 1.58 µM
residual activity [20]: 97%
residual activity [21]: 100%
residual activity [22]: 49%
residual activity [23]: 93%
inhibition [24]: 14.6%
residual activity [25]: 100%
residual activity [26]: 100%
residual activity [27]: 98%
residual activity [28]: 73%
inhibition [29]: 2.59%
residual activity [30]: 82%
inhibition (Rattus norvegicus): 6.39%
residual activity [31]: 96%
residual activity [32]: 100%
residual activity [33]: 100%
residual activity [34]: 100%
residual activity [35]: 95%
residual activity [36]: 100%
residual activity [37]: 79%
residual activity [38]: 89%
residual activity [39]: 100%
residual activity [40]: 100%
residual activity [41]: 100%
inhibition [42]: 7.6%
residual activity [43]: 87%
residual activity [44]: 100%
